Molecules are shown by their SMILES. Like-named read-outs stand apart in the source and are kept apart here.

As usually defined, the half-life is the time in which the quantity being followed falls by half. Read a low half-life as rapid decline.

For data set [1] the following is noted: female, Sprague-Dawley (SD), rat, microsomes, 6 μg/mL, pH 7.4.
The next data set is described as follows: in vitro. The conditions noted are these: female, Sprague-Dawley (SD), rat, microsomes, pH 7.4, Half-life.
In another data set the target is T1, ACAT2 (Mus musculus, UniProt O88908).
T1 construct: The resulting sediment was collected as a microsome fraction; from tissue; host or cells: mouse liver (hepatic microsome membrane fraction)
T1 sequence (O88908 1-525): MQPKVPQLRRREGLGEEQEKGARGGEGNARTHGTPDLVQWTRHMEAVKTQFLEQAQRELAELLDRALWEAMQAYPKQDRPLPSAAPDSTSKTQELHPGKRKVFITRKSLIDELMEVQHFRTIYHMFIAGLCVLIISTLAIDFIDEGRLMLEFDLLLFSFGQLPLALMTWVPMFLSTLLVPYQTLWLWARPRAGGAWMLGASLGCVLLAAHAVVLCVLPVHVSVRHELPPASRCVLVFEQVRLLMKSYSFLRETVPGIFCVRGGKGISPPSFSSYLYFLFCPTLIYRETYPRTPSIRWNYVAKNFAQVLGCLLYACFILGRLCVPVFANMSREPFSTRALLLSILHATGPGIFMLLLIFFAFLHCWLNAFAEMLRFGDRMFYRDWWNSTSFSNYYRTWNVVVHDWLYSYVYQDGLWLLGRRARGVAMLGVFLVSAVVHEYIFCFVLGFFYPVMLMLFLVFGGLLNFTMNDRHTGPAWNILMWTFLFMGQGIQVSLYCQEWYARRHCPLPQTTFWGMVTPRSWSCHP
The experiment in a line: Measurement of ACAT2-inhibiting activity (murine hepatic microsome, [14C]cholesteryl oleate formation). Format: biochemical. Particulars: for IC50: murine hepatic microsome membrane fraction, 5 min at 37° C., read-out: Inhibitory activity (concentration required for 50% inhibition of ACAT 2 = IC50); for Specific activity ((IC50 of the test compound)/(IC50 of PRD 043)): relative to PRD 043, class symbols. As for the experimental part:
The enzyme source which was used was a membrane fraction derived from murine hepatic microsome. Mouse livers were homogenized in buffer solution A (50 mM Tris HCl solution (pH 7.8), 1 mM ethylene diamine tetraacetate, and 1 mM phenylmethanesulfonyl fluoride) using a Potter-type homogenizer (Tokyo-Riko). The homogenate was centrifuged at 12000×g, and the supernatant was subjected to ultracentrifugation at 100000×g. The resulting sediment was collected as a microsome fraction, and this fraction was adjusted so as to have a protein concentration of 5 mg/mL using buffer solution A.
As a control, 10 μL of methanol were used in place of the pyripyropene derivative.
The chloroform layer was evaporated to dryness and was used to spot a thin layer chromatography plate (silica gel plate, Merck, 0.5 mm thickness). Elution for separation was carried out using hexane/diethyl ether/acetic acid (70:30:1, v/v) as an eluant.
wherein the background is the radioactivity of a thin layer chromatography plate which was not spotted.

Data set [2] can be described thus: Stability against metabolizing enzymes in the liver (hepatic microsome). The conditions noted are these: time until remaining amount reached 50%, 37° C.; for half-life at 6 μg/mL: female, Sprague-Dawley (SD), rat, liver microsomes, pH 7.4, Half-life; for Half-life: female SD rat hepatic microsome, 6 μg/mL, pH 7.4. Background: Liver microsomes are vesicles of endoplasmic reticulum, rich in cytochrome P450 enzymes.

In data set [1], `CC(=O)OC[C@@]1(C)[C@@H]2C[C@H](OC(C)=O)[C@@]3(C)Oc4cc(-c5cccnc5)oc(=O)c4[C@H](O)[C@@H]3[C@@]2(C)CC[C@@H]1OC(C)=O` [PPA, pyripyropene A] displayed a Half-life below 1 h. Also, in the data set “in vitro”, the half-life at 6 μg/mL is 1 h.

Regarding `CCCCCC(=O)OCC1(C)C2C[C@H](OC(=O)c3ccc(C#N)cc3)[C@@]3(C)Oc4cc(-c5cccnc5)oc(=O)c4[C@H](O)C3[C@@]2(C)CC[C@@H]1OC(=O)CCCCC` (some centres unmarked) [PRD167, 7-O-p-cyanobenzoyl-1,11-O-dihexanoyl-1,7,11-trideacetylpyripyropene A], on ACAT2, the IC50 lay in the range of 0.5 to 1 nM and the “Specific activity ((IC50 of the test compound)/(IC50 of PRD 043))” value (“Specific activity” for short) is reported as “+++ (10<specific activity≦20)”. In data set [2], this compound gave a half-life at 6 μg/mL of at least 9 h and a Half-life above 9 h.

Regarding `CC(=O)O[C@H]1CC[C@@]2(C)C(C[C@H](OC(C)=O)[C@@]3(C)Oc4cc(-c5cccnc5)oc(=O)c4[C@H](O)C23)C1(C)COC(=O)c1ccccc1` (some centres unmarked) [PRD177, 11-O-benzoyl-11-deacetylpyripyropene A], on ACAT2, the IC50 was 1 to 10 nM and the “Specific activity” value is recorded as “+++ (10<specific activity≦20)”. In data set [2], this compound displayed a half-life at 6 μg/mL of at least 9 h and a Half-life above 9 h.

Consider `CC12CO[C@@H](c3cccc4ccccc34)O[C@H]1CC[C@@]1(C)C2C[C@H](OC(=O)c2ccc(C#N)cc2)[C@@]2(C)Oc3cc(-c4cccnc4)oc(=O)c3[C@H](O)C12` (some centres unmarked) [PRD180, 1,11-O-o-naphthylidene-7-O-p-cyanobenzoyl-1,7,11-trideacetylpyripyropene A], for which, at ACAT2, the IC50 is 1 to 10 nM and the “Specific activity” value is “+++ (10<specific activity≦20)”. Further, in data set [2], the half-life at 6 μg/mL was at least 9 h and the Half-life is recorded as above 9 h.

On to `Cc1cccc(C)c1[C@@H]1OCC2(C)C3C[C@H](OC(=O)c4ccc(C#N)cc4)[C@@]4(C)Oc5cc(-c6cccnc6)oc(=O)c5[C@H](O)C4[C@@]3(C)CC[C@@H]2O1` (some centres unmarked) [PRD181, 1,11-O-o,o-dimethylbenzylidene-7-O-p-cyanobenzoyl-1,7,11-trideacetylpyripyropene A], for which, at ACAT2, the IC50 is 0.5 to 1 nM and the “Specific activity” value is “+++ (10<specific activity≦20)”. In data set [2], this compound gave a half-life at 6 μg/mL of at least 9 h and a Half-life above 9 h.

For the compound `CC(=O)O[C@H]1CC2C3(C)CO[C@@H](c4ccccc4)O[C@H]3CC[C@]2(C)C2[C@@H](O)c3c(cc(-c4cccnc4)oc3=O)O[C@@]21C` (some centres unmarked) [PRD186, 1,11-O-benzylidene-1,11-dideacetylpyripyropene A], on ACAT2, the IC50 fell in the range of 1 to 10 nM and the “Specific activity” value is “+++ (10<specific activity≦20)”. Moreover, in data set [2], the half-life at 6 μg/mL is at least 9 h and the Half-life is above 9 h.

For `CC(=O)O[C@H]1CC2C(C)(COC(=O)C(C)C)[C@@H](OC(=O)C(C)C)CC[C@]2(C)C2[C@@H](O)c3c(cc(-c4cccnc4)oc3=O)O[C@@]21C` (some centres unmarked) [PRD187, 1,11-O-diisobutyryl-1,11-dideacetylpyripyropene A], at ACAT2, the IC50 fell in the range of 0.5 to 1 nM and the “Specific activity” value was “+++ (10<specific activity≦20)”. In addition, in data set [2], the half-life at 6 μg/mL was at least 9 h and the Half-life was above 9 h.

For the origin of these results see patent US9187492B2, “Pyripyropene derivative having ACAT2 inhibiting activity and stable to metabolizing enzymes” (School Juridical Person Kitasato Institute, priority 2010, dated 2015).
